According to publication PMC11929074, “An in vitro platform for the enzymatic characterization of the rhomboid protease RHBDL4” (The Journal of Biological Chemistry, 2025):
*1 amine or outer side, *2 acyl side, *3 side chain or, on linkers, in order; H or OH if unused. Where a SMILES comes first, the peptide text is derived from it. [ ]: non-standard residue; d: D form. The star is where a group is joined. Pheol(OBn) = c1ccc(COC[C@H](Cc2ccccc2)N*)cc1; NH(4-phenylbutyl) = c1ccc(CCCCN*)cc1; X1 = C[C@H](N[*:1])C(=O)C(=O)[*:2]

Tests used:
[1] = biological target: T1, recombinant human RHBDL4 (Homo sapiens, UniProt Q8TEB9); assay: Inhibition of RHBDL4 proteolysis of IQ6 (FRET-based in vitro assay); format: biochemical; conditions: IQ6 substrate; inhibitor pre-incubated with RHBDL4 for 1 h, then reacted with IQ6 for 2 h; triplicate, average ± S.E.M.
T1 construct: The entire RHBDL4 and RHBDL4-S144A cDNAs were subcloned into the pcDNA3.1 vector; 6xHis (C, cleaved yes); made in house; host or cells: Freestyle 293-F cells (transient transfection, pcDNA3.1-HisA)
T1 sequence (Q8TEB9 1-315): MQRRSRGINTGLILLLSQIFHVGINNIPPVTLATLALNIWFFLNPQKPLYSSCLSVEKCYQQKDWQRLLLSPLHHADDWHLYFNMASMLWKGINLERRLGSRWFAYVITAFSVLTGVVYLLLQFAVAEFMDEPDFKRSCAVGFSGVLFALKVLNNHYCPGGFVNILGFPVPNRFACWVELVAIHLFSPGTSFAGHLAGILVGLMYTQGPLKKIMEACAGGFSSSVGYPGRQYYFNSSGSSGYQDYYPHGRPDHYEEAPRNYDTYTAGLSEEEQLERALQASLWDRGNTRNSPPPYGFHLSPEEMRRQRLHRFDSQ
Source text: (§1) B, schematic representation of the peptidyl-α-ketoamide scaffold with peptide sequence P5-P1 at the nonprime side and hydrophobic substituent (R) at the prime side. C, schematic representation of the peptidyl-α-ketoamide inhibitor, compound 1a/1b. D, representative inhibition curve derived from measuring rates of RHBDL4 proteolysis of the fluorescent substrate IQ6 with increasing concentrations of compound 1a. E, same as (D), except inhibition curve was derived from using increasing concentrations of compound 1b. […] Reactions were quenched with 1 keLaemmli buffer and loaded on 12% SDS-PAGE gel. Post-transfer membranes were visualized using a fluorescence Cy3 filter and by Western blotting using an α-His antibody. For (A, D, and E), all inhibitors were pre-incubated with RHBDL4 for 1 h and allowed to react with the IQ6 substrate for 2 h.
(§2) B, representative inhibition curve derived from measuring rates of RHBDL4 proteolysis of the fluorescent substrate IQ6 with increasing concentrations of compound 3. C, same as (B), except inhibition curve was derived from using increasing concentrations of compound 4. […] Reactions were quenched with 1 RLaemmli buffer and loaded on 12% SDS-PAGE gel. Post-transfer membranes were visualized using a fluorescence Cy3 filter and by Western blotting using an α-His antibody. E, saturation curve of RHBDL4 using fluorescent substrate, KSp207. For (B and C), all inhibitors were pre-incubated with RHBDL4 for 1 h and allowed to react with the IQ6 substrate for 2 h. […] I assigned them to the substrate KSp207, which is named on the x-axis and in the inset table.
The enzymatic assay was performed as previously described (Arutyunova et al., 2014, ([26])). […] The FRET-based cleavage assay was conducted in a fluorescence multiwell plate reader (SynergyMx, BioTek). Upon excitation at 320 nm, the emission intensity at 400 nm was recorded for 2 h at minimal intervals under shaking conditions and plotted using the GraphPad PRISM software. The initial velocities were defined as the slopes of the curve of the generated product as a function of time. The plots of the generated product against the corresponding substrate concentration were fitted with the Michaelis–Menten equation. Catalytic parameters were extrapolated using GraphPad PRISM. […] The samples were desalted using C18 tips (Rainin), eluted in 80% acetonitrile, and dried down in a vacuum centrifuge prior to mass spectrometry analysis.

[2] = system: WT RHBDL4 (recombinant, purified); assay: TAMRA-FP competition labelling on recombinant RHBDL4; format: binding, human; conditions: in-gel Cy3 fluorescence, compared with inactive RHBDL4-S144A control
Source text: as §1, §2

[3] = system: RHBDL4-GFP in ER-enriched microsomes of HEK293T cells; assay: TAMRA-FP competition label assay in ER-enriched microsomes; format: binding, human; conditions: 100 μM compound, 1 h preincubation at 37 °C, then 500 nM TAMRA-FP 2 h at 37 °C; n = 3
Protocol: Figure 6 RHBDL4 inhibition studies in ER-enriched microsomes ER-enriched microsomes were preincubated with 100 μM of compounds or DMSO vehicle control followed by the addition of 500 nM of TAMRA-FP serine hydrolase probe. RHBDL4-GFP was immunoprecipitated with an α-GFP antibody and loaded on SDS-PAGE. TAMRA-FP labeling was analyzed via Cy3 filter followed by Western blotting using α-GFP antibody, n = 3.
ER-enriched microsomes were obtained by hypotonic swelling and centrifugation from Hek293T cells 24 h after transfection. To this end, cells from a subconfluent 15-cm plate were resuspended in isolation buffer (10 mM Hepes-KOH pH 7.4, 1.5 mM MgCl2, 10 mM KCl, EDTA-free complete protease inhibitor cocktail from Roche). After 10 min incubation at 4 °C, cells were lysed by passing six times through a 27-gauge needle. Cellular debris and nuclei were discarded after centrifugation at 1000g for 5 min at 4 °C. The supernatant was spun at 100,000g for 30 min at 4 °C. The membrane pellet was resuspended in 40 μl RM buffer (50 mM Hepes-KOH pH 7.4, 250 mM sucrose, 50 mM KOAc, 2 mM Mg(OAc)2). […] TAMRA-FP-labeling was analyzed in the wet gel with a green light source (535 nm) and a Cy3 filter by detecting fluorescence emission using ImageQuant 800 Fluor CCD imager (Cytiva) followed by Western blotting using an α-GFP antibody (Roche).

IC50 [1] [nM]	SMILES	competition with TAMRA-FP probe (fluorescent signal) [2]	TAMRA-FP labeling of RHBDL4-GFP [3]
54 ± 13	CSCC[C@H](NC(=O)[C@H](CCC(N)=O)NC(C)=O)C(=O)N[C@@H](CCC(=O)O)C(=O)N[C@@H](CO)C(=O)N[C@@H](C)C(=O)C(=O)NCCCCc1ccccc1 [compound 3] (Ac-QMES[X1]-{NH(4-phenylbutyl)})	reduction in overall fluorescent signal	reduced
–	CSCC[C@H](NC(=O)[C@H](CCC(N)=O)NC(C)=O)C(=O)N[C@@H](CCC(=O)O)C(=O)N[C@@H](CO)C(=O)N[C@@H](C)C(=O)C(=O)N[C@H](COCc1ccccc1)Cc1ccccc1 [compound 4] (Ac-QMES[X1]-{Pheol(OBn)})	reduction in overall fluorescent signal	reduced
